According to article PMC6017645, “Substrate Binding Switches the Conformation at the Lynchpin Site in the Substrate-Binding Domain of Human Hsp70 to Enable Allosteric Interdomain Communication” (Molecules : A Journal of Synthetic Chemistry and Natural …, 2018):

Key:
[1] = tested on: SBD in Hsp70 with covalently modified E444; conditions: PDB ID: 4WV7; ref [29]; cited from earlier work
Source text: E444 in Hsp70 is accessible by NBD in the apo-form SBD(∆CDE)-y, whereas it is covered by the Lα,β loop and therefore this interaction is hindered in the substrate-bound form (Figure 7a,b). This is consistent with the observation for Q442 in DnaK, as described above.

[2] = biological target: T1, SBD(∆CDE)-y of human Hsp70 (Homo sapiens, UniProt P0DMV8, L542Y); test: Binding kinetics estimated from simulation of NMR exchange
T1 construct: We solved the solution structure of SBD(∆CDE) comprising residues 382–564; His6 (N, cleaved yes); made in house; host or cells: E. coli BL21(DE3)
T1 sequence (P0DMV8 382-564 L542Y): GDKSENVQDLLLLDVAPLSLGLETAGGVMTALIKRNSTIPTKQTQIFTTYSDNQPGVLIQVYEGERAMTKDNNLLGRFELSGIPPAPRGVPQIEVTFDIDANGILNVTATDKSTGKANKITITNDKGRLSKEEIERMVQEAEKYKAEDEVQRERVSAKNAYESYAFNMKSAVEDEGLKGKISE
Description: This gives a kon = 2.3 × 10^4 M^−1 s^−1, which is consistent with the kinetics for the lidless SBD of DnaK in binding to its target peptide (kon = 2 × 10^4 M^−1 s^−1 and koff = 12.5 s^−1).
The NMR titration experiments were performed by acquiring a series of 2D ^1H-^15N HSQC spectra of the protein in 50 mM potassium phosphate (pH 7.0), 50 mM KCl and 10 mM DTT at 310 K (37 °C). The NR-peptide (0.075 mM, 0.15 mM, 0.30 mM, 0.60 mM, 1.2 mM, 3.0 mM and 6.0 mM) was titrated into a sample containing 0.3 mM ^15N labeled SBD(∆CDE)-y. Data processing and analysis were performed with NMRPipe and KUJIRA [41], respectively. The dissociation constant, KD, was estimated by fitting Equation (1) to the bound fraction of SBD(∆CDE)-y, fbound: (1) fbound([L]total)=1−I([L]total)/I0=([P]total+[L]total+KD)−([P]total+[L]total+KD)^2−4[P]total[L]total/2[P]total where [L]total and [P]total are the total concentrations of NR-peptide and SBD(∆CDE)-y, respectively, and I and I0 are the signal intensities with and without NR-peptide. Each signal intensity was measured by a similar procedure described in Section 4.3. […] Uncertainties in the dissociation constant was estimated by Monte Carlo simulations on the basis of the uncertainty for each signal intensity evaluated using the root-mean-square deviation value on a spectral region with no signals, which was obtained by the NMRPipe built-in module.

[3] = biological target: T2, SBD(∆CDE)-y, substrate-binding domain of human Hsp70 (HSPA1A) lacking αC, αD and αE, with the L542Y mutation (human, UniProt P0DMV8 382-564, L542Y); test: NMR titration; 2D 1H-15N HSQC; NR-peptide (0.075-6.0 mM) titrated into 0.3 mM 15N-labelled SBD(∆CDE)-y; 50 mM potassium phosphate pH 7.0, 50 mM KCl, 10 mM DTT, 37 °C; slow exchange; global fit of signal intensities of 28 residues; conditions: both partners purified
T2 construct: Cloned in pET16b (NdeI/XhoI); 15N- or 13C/15N-labelled for NMR, unlabelled (LB medium) for ITC; also called mutant SBD; apo-form SBD; source: E. coli BL21(DE3), purified (HisTrap FF, Factor Xa cleavage, HiTrap Q FF); not shown: His6, N-terminal, cleaved
T2 sequence (P0DMV8 382-564 L542Y): as above

[4] = biological target: T2, SBD(∆CDE)-y, substrate-binding domain …; test: ITC; 1.5 μL injections of 5 mM NR-peptide into 200 μL of 0.1 mM SBD(∆CDE)-y; single-site fit with the stoichiometry fixed as n = 1; triplicate; conditions: both partners purified
[5] = biological target: T3, SBD(∆CDE) (S537C/L542Y) mutant, labelled at residue 537 with MTSL or its diamagnetic analog (human, UniProt P0DMV8 382-564, S537C | L542Y, MTSL nitroxide radical, or the diamagnetic MTSL analog, on C537); test: NMR paramagnetic relaxation enhancement; 2D 1H-15N HSQC of 0.5 mM spin-labelled SBD(∆CDE) (S537C/L542Y) with/without 5.0 mM NR-peptide; 50 mM potassium phosphate pH 7.0, 50 mM KCl, 37 °C; conditions: both partners purified
T3 construct: 15N-labelled for NMR; PDB 5XIR is the parent SBD(∆CDE)-y without S537C; also called SBD(∆CDE)-y harboring a S537C mutation; SBD(∆CDE)-y with spin labeling at residue 537; source: E. coli BL21(DE3), purified (as in Section 4.1), then labelled with MTSL; not shown: His6, N-terminal, cleaved
T3 sequence (P0DMV8 382-564 S537C/L542Y): as the sequence (P0DMV8 382-564 L542Y) above, with S156C counted along it

In the case of `C=CC1=CC[C@H]2[C@@H](C[C@@H](O)[C@@]3(O)[C@@]4(C)C(=O)O[C@H]4CC[C@]23C)[C@H]1C` [novolactone], the “effect of covalent E444 modification on interdomain interactions” value [1] is listed as “sterically blocks the interdomain interactions”.

For `CC(C)C[C@H](NC(=O)[C@H](CC(C)C)NC(=O)[C@H](CCCNC(=N)N)NC(=O)[C@@H](N)CC(N)=O)C(=O)N[C@@H](CC(C)C)C(=O)N[C@H](C(=O)NCC(=O)O)[C@@H](C)O` [NR-peptide], the kon ([2]; from koff 30 s^−1 and KD = 1.3 mM) was 23000 M⁻¹ s⁻¹ and the koff ([2]; simulation using average R2 rate 21 s^−1 and KD = 1.3 mM, SBD(∆CDE)-y 0.3 mM, peptide 3.0 mM, read-out: maximum koff) was ≤ 30 s⁻¹.

B1: NR-peptide (peptide)
peptide: NRLLLTG
notes: Model client peptide of Hsp70; also called NRLLLTG; client-peptide
With B1 the Kd [3] was 1300 µM, the Kd [4] was 1500 µM and the binding result [5] was “binds”.
